Source: ChEMBL document CHEMBL1201862, “PubChem BioAssay data set” (2004)
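96-well plates; 48 h exposure; 5 concentrations. Endpoints by linear interpolation between flanking doses. Not reached: highest tested concentration assigned. GI50 = concentration required for 50% inhibition of growth.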 Calls of active or inactive are those of the source. Rule as the data show it: active = GI50 up to about 1.1 µM and inactive = higher.

Experiments:
Assay in all cases: NCI-60 cell line screen, 48 h
[1] = test system: 786-0
[2] = test system: A498
[3] = test system: A549
[4] = test system: ACHN
[5] = test system: CAKI-1
[6] = test system: CCRF-CEM
[7] = test system: COLO 205
[8] = test system: DLD-1
[9] = test system: DMS-114
[10] = test system: EKVX
[11] = test system: HCC 2998
[12] = test system: HCT-116
[13] = test system: HL-60
[14] = test system: HOP-62
[15] = test system: HOP-92
[16] = test system: HT-29
[17] = test system: IGROV-1
[18] = test system: K562
[19] = test system: KM-20L2
[20] = test system: KM12
[21] = test system: LXFL 529
[22] = test system: M14
[23] = test system: M19-MEL
[24] = test system: MOLT-4
[25] = test system: Malme-3M
[26] = test system: NCI-H226
[27] = test system: NCI-H23
[28] = test system: NCI-H460
[29] = test system: NCI-H522
[30] = test system: OVCAR-3
[31] = test system: OVCAR-4
[32] = test system: OVCAR-5
[33] = test system: OVCAR-8
[34] = test system: RPMI-8226
[35] = test system: SF-268
[36] = test system: SF-295
[37] = test system: SK-MEL-28
[38] = test system: SK-MEL-2
[39] = test system: SK-MEL-5
[40] = test system: SK-OV-3
[41] = test system: SN12C
[42] = test system: SNB-19
[43] = test system: SNB-75
[44] = test system: SR
[45] = test system: SW-620
[46] = test system: TK-10
[47] = test system: U-251
[48] = test system: UACC-257
[49] = test system: UACC-62
[50] = test system: UO-31
[51] = test system: XF498
[52] = test system: HCT-15
[53] = test system: LOX IMVI
[54] = test system: RXF 393
[55] = test system: DMS-273
[56] = test system: HOP-18
[57] = test system: SF-539

Measured: GI50

COc1ccc([C@@]2(O)c3c(ccc(O)c3OC)[C@H]2OC)c(OC)c1
inactive: [1] 41.8 µM | [2] > 100 µM | [3] 85.1 µM | [4] 86.1 µM | [5] 35.7 µM | [6] 36.6 µM | [7] 44.2 µM | [8] 47.3 µM | [9] 22.1 µM | [10] > 100 µM | [11] 44.2 µM | [12] 33.5 µM | [13] 31.6 µM | [14] > 100 µM | [15] 53.6 µM | [16] 37.2 µM | [17] > 100 µM | [18] 36.5 µM | [19] 66.5 µM | [20] 39.4 µM | [21] 30.2 µM | [22] > 100 µM | [23] 48.5 µM | [24] 34.7 µM | [25] > 100 µM | [26] > 100 µM | [27] 34.6 µM | [28] > 100 µM | [29] 28.8 µM | [30] 68.2 µM | [31] 67.9 µM | [32] > 100 µM | [33] 51.5 µM | [34] 30.1 µM | [35] 75.9 µM | [36] 29.2 µM | [37] 47.8 µM | [38] 63.4 µM | [39] 48.6 µM | [40] 28.6 µM | [41] 71.8 µM | [42] > 100 µM | [43] 39.6 µM | [44] 35.6 µM | [45] 46.6 µM | [46] 27.1 µM | [47] 45.8 µM | [48] > 100 µM | [49] > 10 µM | [50] 69.3 µM | [51] 41.7 µM

C/C(=N\NC(=O)c1ccccc1O)c1cccc(/C(C)=N/NC(=O)c2ccccc2O)n1.[Cl-].[Cl-].[Zn+2]
inactive: [3] 10.8 µM | [4] 2.17 µM | [9] 2.97 µM | [10] 19.6 µM | [11] 2.01 µM | [15] 10.6 µM | [20] 6.25 µM | [53] 1.37 µM | [21] 1.34 µM | [22] 7.96 µM | [24] 1.59 µM | [25] 10.8 µM | [33] 2.18 µM | [54] 8.05 µM | [35] 2.11 µM | [36] 9.98 µM | [38] 15.2 µM | [39] 10.4 µM | [40] 6.15 µM | [43] 17.9 µM | [44] 1.44 µM | [45] 5.85 µM | [46] 10.2 µM | [49] 2.11 µM | [51] 21.2 µM
7.35 µM: [52]

C/C=C/CC(S(=O)(=O)c1ccccc1)S(=O)(=O)c1ccccc1
60 µM: [52]
inactive: [2] > 100 µM | [3] > 100 µM | [4] > 100 µM | [6] 87.1 µM | [7] > 100 µM | [8] > 100 µM | [9] 14 µM | [55] > 100 µM | [10] > 100 µM | [11] > 100 µM | [12] > 100 µM | [13] > 100 µM | [56] > 100 µM | [14] 85.5 µM | [15] > 100 µM | [16] > 100 µM | [17] > 100 µM | [18] > 100 µM | [19] > 100 µM | [20] > 100 µM | [53] > 100 µM | [22] > 100 µM | [24] > 100 µM | [26] > 100 µM | [27] > 100 µM | [28] > 100 µM | [29] 12 µM | [30] > 100 µM | [31] > 100 µM | [32] > 100 µM | [33] > 100 µM | [34] 95.3 µM | [54] > 100 µM | [36] > 100 µM | [57] > 100 µM | [37] > 100 µM | [38] > 100 µM | [39] > 100 µM | [40] > 100 µM | [41] > 100 µM | [42] > 100 µM | [43] 32.7 µM | [44] > 100 µM | [45] > 100 µM | [46] > 100 µM | [47] 33.3 µM | [48] > 100 µM | [49] 36.1 µM | [50] > 100 µM | [51] > 100 µM
